From patent publication US7423017B2, “Method for treating cartilage disorders” (Genentech, Inc., priority 1997, dated 2008)
Positions of bridges follow the written chain, without caps; N, C: chain ends. Residues, ends and D or L forms follow the SMILES beside them. No end group written: not given here.

Experiments:
[1] = biological target: T1, IGFBP-1 (Homo sapiens, UniProt P08833); assay: BIAcore competition assay: IGFBP-1 binding to IGF-I; parameters: made in house; host or cells: CHO cells; conditions: for Fold potency reduction IC50 (BP1-01) / IC50 (mut): locked-helix variants
T1 sequence (P08833 26-259): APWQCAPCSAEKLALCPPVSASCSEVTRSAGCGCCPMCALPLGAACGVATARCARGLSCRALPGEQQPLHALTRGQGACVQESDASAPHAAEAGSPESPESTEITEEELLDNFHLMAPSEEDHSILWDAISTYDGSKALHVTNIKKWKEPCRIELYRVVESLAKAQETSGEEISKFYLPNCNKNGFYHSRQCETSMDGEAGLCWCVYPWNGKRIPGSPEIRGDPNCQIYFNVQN
Experimental: Two series of synthetic peptide variants were generated to determine which side chains of the BP1-01 peptide might contribute directly to binding IGFBP-1. In the first series an alanine-scanning approach (Cunningham and Wells, Science, 244: 1081-1085 (1989)) was used to remove that portion of each side chain beyond the beta carbon. The contribution of these atoms to the free energy of binding of the peptide to IGFBP-1 was then assessed by measuring the potency (IC50) of the variant for inhibiting IGFBP-1 binding to IGF-I or IGF-II in a BIAcore™ competition assay, analogous to that described for IGFBP-3.
Peptides were assayed in a BIAcore™ assay as described in WO 98/45427, supra. These inhibition assays (FIG. 35) compared the relative potency of these peptides for blocking the interaction of IGFBP-1 with IGF-1.
The peptide BP1-625 fraction was lyophilized and resuspended in 100 mM HEPES buffer, pH 7.2.

[2] = biological target: T1, IGFBP-1; assay: KIRA cell-based assay of IGF-like activity displaced by peptides from IGF-1/IGFBP-1; conditions: 2 nM IGF-1, […] IGFBP-1
Experimental: A cell-based (KIRA) assay was previously described for measuring the amount of IGF-like activity displaced by peptides from mixtures of IGF-1 and binding proteins (Lowman et al., supra, 1998; WO 98/45427, supra). The KIRA assay was used to compare in vitro bioactivity of BP1-16, BP1-02, BP1-25, and BP1-40. […] IGF-1 and peptide were mixed and added to cells expressing IGF receptor for 30 min, then IGFBP-1 was added for an additional 1 h.

[3] = biological target: T1, IGFBP-1; assay: BIAcore direct binding kinetics of peptides on immobilized IGFBP-1; parameters: made in house; host or cells: CHO cells; conditions: for Kd: koff/kon, BIAcore kinetics, read-out: KD ± (SD or SE)
Description: WO 98/45427 published Oct. 15, 1998 discloses the preparation and characterization of the IGFBP-1 displacer peptide BP1-01 ([…]) (SEQ ID NO:26). The kinetics of BP1-01 peptide variants were examined in a BIAcore™ (BIAcore, Inc., Piscataway, N.J.) assay using IGFBP-1 covalently coupled via EDC/NHS (as described by the manufacturer) to a dextran chip. […] The latter implies a half-life for peptide dissociation from IGFBP-1 of approximately 28 sec. The association rate constant is moderately fast, consistent with the notion that the peptide may not undergo significant conformation change upon binding to IGFBP-1.
Inhibition assays for measuring relative potencies of peptides for inhibiting IGFBP-1 binding to IGF-I have been described (e.g., WO 98/45427, supra). Peptides described herein were of sufficient binding affinity to allow for direct measurement of binding affinities by surface plasmon resonance (SPR) using a BIACORE™ system. The direct binding kinetics of IGFBP-1 peptides were measured by injecting a series of 2-fold diluted peptides in running buffer (0.05% TWEEN 20™ in PBS) over a carboxy-methyl (CM) biosensor chip coupled with about 590-1000 RU of IGFBP-1 at a flow rate of 50 μl/min on a BIACORE 2000™ or BIACORE 3000™ surface-plasmon-resonance instrument. The immobilization of IGFBP-1 was performed through EDC/NHS chemistry as described by the manufacturer. Peptides were also injected through a flow cell containing IGFBP-3 as background control. Since the off-rate for most of the peptides is relatively fast (in the range of 2×10^−2 s^−1), off-rate measurement was set for 30 minutes. This allowed for regeneration of IGFBP-1 on the chip by simple dissociation, rather than by addition of eluent. For each dilution of peptides, a global fit of the sensorgram data was performed using a 1:1 Langmuir binding model.

[4] = biological target: T2, IGFBP-3 (Homo sapiens, UniProt P17936); assay: IGF-1 blocking phage assay: peptide-phage binding to coated IGFBP-3 with/without IGF-1; conditions: 100 nM IGF-1; 50-fold dilution of phage
T2 construct: made in house
Experimental: IGFBP-3 was coated directly onto MAXISORP198 plates as above. Phage from clonal cultures were mixed with IGF-1 (100 nM final concentration), and incubated with the immobilized IGFBP-3 for 1 hour at room temperature. The plates were then washed ten times, as above, and a solution of rabbit anti-phage antibody mixed with a goat-anti-rabbit conjugate of horseradish peroxidase was added. After an incubation of 1 hour at room temperature, the plates were developed with a chromogenic substrate, o-phenylenediamine (Sigma). The reaction was stopped with addition of ½ volume of 2.5 M H2SO4. Optical density at 490 nm was measured on a spectrophotometric plate reader.
In each case, the phagemid clone was grown from a single colony overnight at 37° C. in a culture volume of 5 ml. The phage particles were precipitated and resuspended in 0.5 ml of PBS buffer. A 50-fold dilution of each phage solution was made into PBS/TWEEN™ buffer, and the phage were incubated with or without 100 nM IGF-1 on an IGFBP-3-coated MAXISORP™ plate.
In each case, the phagemid clone was grown from a single colony overnight at 37° C. in a culture volume of 5 ml. The phage particles were prepared as described above.

[5] = biological target: T2, IGFBP-3; assay: phage-ELISA competition assay of g3 peptide-phage clones; type: binding; conditions: g3 monovalent display
Description: A third clone, 3Ai.2, represents a new peptide sequence that was not identified from g8 display.

T2 sequence (P17936 28-291): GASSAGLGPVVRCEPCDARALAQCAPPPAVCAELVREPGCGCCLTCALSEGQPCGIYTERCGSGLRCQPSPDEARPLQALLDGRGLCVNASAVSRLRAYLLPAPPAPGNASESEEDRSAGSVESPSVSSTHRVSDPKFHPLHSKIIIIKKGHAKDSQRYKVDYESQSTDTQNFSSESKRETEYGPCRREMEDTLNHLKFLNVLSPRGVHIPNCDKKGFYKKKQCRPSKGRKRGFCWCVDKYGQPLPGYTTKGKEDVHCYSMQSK

Compound: acRPLEWLAEKYFE (Ac-RPLEWLAEKYFE; bridge 4-12) [(i + 8)B]
- Fold potency reduction IC50 (BP1-01) / IC50 (mut) [1]: 8

Compound: acRAGPLEWLAEKYEG (Ac-RAGPLEWLAEKYEG; bridge 6-13; not fully specified) [(i + 7)D]
- Fold potency reduction IC50 (BP1-01) / IC50 (mut) [1]: 8

Compound: CC(C)C[C@@H]1NC(=O)[C@H](Cc2c[nH]c3ccccc23)NC(=O)[C@H](CCC(N)=O)NC(=O)[C@H](CC(C)C)NC(=O)[C@@H]2CCCN2C(=O)CNC(=O)[C@H](C)NC(=O)[C@H](CCCNC(=N)N)NC(=O)[C@@H](NC(=O)[C@H](CO)NC(=O)[C@H](CCC(N)=O)NC(=O)[C@H](CCC(N)=O)NC(=O)CN)CSSC[C@@H](C(=O)N[C@@H](CCC(=O)O)C(=O)N[C@@H](CCCCN)C(=O)N[C@@H](Cc2ccc(O)cc2)C(=O)N[C@@H](Cc2ccccc2)C(=O)N[C@@H](CO)C(=O)N[C@H](C(=O)N[C@@H](Cc2ccc(O)cc2)C(=O)O)[C@@H](C)O)NC1=O [BP1-40] (H-GQQSCRAGPLQWLCEKYFSTY-OH; disulfide 5-14; N-terminus and C-terminus assumed)
- EC20 (concentration at which 20% of maximal IGF-1 activity is observed) [2]: 10 to 20 nM
- Kd [3]: 27 ± 21 nM

Compound: CC(C)C[C@@H]1NC(=O)[C@H](Cc2c[nH]c3ccccc23)NC(=O)[C@H](CCC(N)=O)NC(=O)[C@H](CC(C)C)NC(=O)[C@@H]2CCCN2C(=O)CNC(=O)[C@H](C)NC(=O)[C@H](CCCNC(=N)N)NC(=O)[C@@H](NC(=O)[C@@H](NC(=O)[C@H](CCCNC(=N)N)NC(=O)[C@H](C)NC(=O)[C@@H](N)CCC(=O)O)C(C)C)CSSC[C@@H](C(=O)N[C@@H](CCC(=O)O)C(=O)N[C@@H](CCCCN)C(=O)N[C@@H](Cc2ccc(O)cc2)C(=O)N[C@@H](Cc2ccccc2)C(N)=O)NC1=O [BP1-20] (H-EARVCRAGPLQWLCEKYF-NH2; disulfide 5-14; N-terminus assumed)
- Kd [3]: 33 ± 15 nM

Compound: SGGAIYWPVEQFIAFMAVGK [23A3.3]
- inhibited for binding to IGFBP-3 (phage clone with vs without IGF-1) [4]: about 20%

Compound: CC(C)C[C@@H]1NC(=O)[C@H](Cc2c[nH]c3ccccc23)NC(=O)[C@H](CCC(N)=O)NC(=O)[C@H](CC(C)C)NC(=O)[C@@H]2CCCN2C(=O)CNC(=O)[C@H](C)NC(=O)[C@H](CCCNC(=N)N)NC(=O)[C@@H](N)CSSC[C@@H](C(=O)N[C@@H](CCC(=O)O)C(=O)N[C@@H](CCCCN)C(=O)N[C@@H](Cc2ccc(O)cc2)C(=O)N[C@@H](Cc2ccccc2)C(=O)NCC(N)=O)NC1=O [BP1-01] (H-CRAGPLQWLCEKYFG-NH2; disulfide 1-10)
- Fold potency reduction IC50 (BP1-01) / IC50 (mut) [1]: 1

Compound: CC(C)C[C@@H]1NC(=O)[C@H](Cc2c[nH]c3ccccc23)NC(=O)[C@H](CCC(N)=O)NC(=O)[C@H](CC(C)C)NC(=O)[C@@H]2CCCN2C(=O)CNC(=O)[C@H](C)NC(=O)[C@H](CCCNC(=N)N)NC(=O)[C@@H](NC(=O)CNC(=O)[C@@H](NC(=O)[C@H](CCC(=O)O)NC(=O)[C@@H](N)CO)C(C)C)CSSC[C@@H](C(=O)N[C@@H](CCC(=O)O)C(=O)N[C@@H](CCCCN)C(=O)N[C@@H](Cc2ccc(O)cc2)C(=O)N[C@@H](Cc2ccccc2)C(=O)N[C@@H](CO)C(=O)N[C@H](C(=O)N[C@@H](Cc2ccc(O)cc2)C(N)=O)[C@@H](C)O)NC1=O [BP1-21A] (H-SEVGCRAGPLQWLCEKYFSTY-NH2; disulfide 5-14; N-terminus assumed)
- Kd [3]: 41 ± 17 nM
- IGF-I Inhibition IC50 (114)/IC50 (mut) ([1]; relative to BP1-14): 3

Compound: CC(C)C[C@@H]1NC(=O)[C@H](Cc2c[nH]c3ccccc23)NC(=O)[C@H](CCC(N)=O)NC(=O)[C@H](CC(C)C)NC(=O)[C@@H]2CCCN2C(=O)CNC(=O)[C@H](C)NC(=O)[C@H](CCCNC(=N)N)NC(=O)[C@@H](NC(=O)CNC(=O)[C@@H](NC(=O)[C@H](CCC(=O)O)NC(=O)[C@@H](N)CO)C(C)C)CSSC[C@@H](C(=O)N[C@@H](CCC(=O)O)C(=O)N[C@@H](CCCCN)C(=O)N[C@@H](Cc2ccc(O)cc2)C(=O)N[C@@H](Cc2ccccc2)C(=O)NCC(=O)O)NC1=O [BP1-02] (H-SEVGCRAGPLQWLCEKYFG-OH; disulfide 5-14; N-terminus and C-terminus assumed)
- EC20 (concentration at which 20% of maximal IGF-1 activity is observed) [2]: 150 to 200 nM
- half-life for peptide dissociation from IGFBP-1 [3]: approximately 28 sec
- Kd [3]: 210 ± 46 nM
- kon ([3]; peptide on immobilized IGFBP-1, read-out: association rate constant): 230000 M⁻¹ s⁻¹

Compound: SGGAIYMPVEQFIAFMAVGK [23A3.5]
- inhibited for binding to IGFBP-3 (phage clone with vs without IGF-1) [4]: about 20%

Compound: GQQSCAAGPLQWLCEHYFSTYGR (disulfide 5-14 (inferred)) [BP1-625]
- improved potency over BP1-01 ([1]; 9-10 nM IGFBP-1): about 20 fold

Compound: VAWEVCWDRHDQGYICTTDS [4D3.11]
- inhibited for binding to IGFBP-3 (phage clone with vs without IGF-1) [4]: 5%

Compound: VAWEVCWDRHDQGYICTTDS [g3-4D3.11]
- apparent affinity in phage-ELISA competition assays [5]: < 100 nM

Compound: acLEWLAEKYFE (Ac-LEWLAEKYFE; bridge 2-10) [(i + 8)A]
- Fold potency reduction IC50 (BP1-01) / IC50 (mut) [1]: >200

Compound: acRAGPLEWLAEKYFE (Ac-RAGPLEWLAEKYFE; bridge 6-14; not fully specified) [(i + 8)C]
- Fold potency reduction IC50 (BP1-01) / IC50 (mut) [1]: 6

Compound: EESECFEGPGYVICGLVG [g3-4B3.3]
- apparent affinity in phage-ELISA competition assays [5]: < 100 nM

Compound: CC(C)C[C@@H]1NC(=O)[C@H](Cc2c[nH]c3ccccc23)NC(=O)[C@H](CCC(N)=O)NC(=O)[C@H](CC(C)C)NC(=O)[C@@H]2CCCN2C(=O)CNC(=O)[C@H](C)NC(=O)[C@H](CCCNC(=N)N)NC(=O)[C@@H](NC(=O)[C@@H](NC(=O)[C@H](CCCNC(=N)N)NC(=O)[C@H](C)NC(=O)[C@@H](N)CCC(=O)O)C(C)C)CSSC[C@@H](C(=O)N[C@@H](CCC(=O)O)C(=O)N[C@@H](CCCCN)C(=O)N[C@@H](Cc2ccc(O)cc2)C(=O)N[C@@H](Cc2ccccc2)C(=O)N[C@@H](CO)C(=O)N[C@H](C(=O)N[C@@H](Cc2ccc(O)cc2)C(=O)O)[C@@H](C)O)NC1=O [BP1-25] (H-EARVCRAGPLQWLCEKYFSTY-OH; disulfide 5-14; N-terminus and C-terminus assumed)
- EC20 (concentration at which 20% of maximal IGF-1 activity is observed) [2]: 10 to 20 nM
- Kd [3]: 42 ± 11 nM
